From patent publication US10464952B2, “Beta-lactamase inhibitors” (priority 2015, dated 2019)

What was measured:
SHV-5 = molecular target: T1, SHV-5 (Klebsiella pneumoniae, UniProt P0A3M1); test: β-lactamase enzyme inhibition assay, SHV-5 (cefotaxime substrate); type: biochemical
T1 construct: made in house; host or cells: E. coli BL21(DE3)
Protocol: (§1) For SHV-5, KPC-2, p99AmpC and OXA-4813-lactamases, E. coli BL21(DE3) bacterial cells carrying expression plasmids (expressed as native untagged proteins) for the individual β-lactamases were grown in 1L of Superbroth (Teknova Inc. Hollister, Calif.) supplemented with 100 μg/ml kanamycin selection and 1×5052 (0.5% glycerol, 0.05% glucose and 0.2% α-lactose) at 35° C. for 18-20 hours. Cells were harvested by centrifugation (4,000 ×g, 4° C., 20 min), re-suspended in 50 ml of 10 mM HEPES pH 7.5 (1/20 of the initial volume). The cells were lysed by sonication (5 pulses of 45 seconds) at 45 Won ice. The lysates were clarified by centrifugation at 10,000 ×g for 40 minutes at 4° C. Samples were diluted 5-fold in 50 mM sodium acetate pH 5.0, stored overnight at 4° C., after which they were centrifuged at 10,000 ×g for 30 minutes to clarify, and filtered through 0.45 μm filters. The samples were loaded onto a 5 ml Capto S sepharose cation exchange column (GE Healthcare) pre-equilibrated with 50 mM sodium acetate pH 5.0. The column was washed with 5 column volumes of 50 mM sodium acetate pH 5.0 to wash out unbound protein and a linear gradient of NaCl (0 to 500 mM) was used to elute the protein (over 16 CV) from the column. Fractions were assayed for β-lactamase activity using Centa (Calbiochem, Gibbstown, N.J.) or Nitrocefin (EMD Millipore chemicals, Darmstadt, Germany) as a reporter β-lactamase substrate for activity in the isolated fractions. Active fractions were pooled, concentrated and further purified by gel filtration chromatography on a Superdex 75 prep grade gel filtration column (GE Healthcare, Piscataway, N.J.) pre -equilibrated in 50 mM Hepes pH 7.5, 150 mM NaCl. Active fractions were pooled, concentrated, and quantitated by BCA protein determination (ThermoScientific, Rockford, Ill.), dialyzed into PBS and frozen at […] in 20% glycerol until use.
(§2) An equal volume of diluted enzyme stock was added, and the plates were incubated at 37° C. for 15 min. Nitrocefin was used as substrate for p99 AmpC, VIM-2 and OXA-48 and dispensed into each well at a final concentration of 100 μM. Absorbance at 486 nm was immediately monitored for 10 min using a Biotek Powerwave XS2 microplate spectrophotometer using the GEN5 software package (Biotek Instruments, Winooski Vt.). In an analogous fashion, imipenem was used as substrate for KPC-2 and Cefotaxime was used for SHV-5, while changes in absorbance upon hydrolysis of the β-lactam ring were monitored at 300 nm and 260 nm respectively in UV-transparent 96-well microtiter assay plates. Maximum rates of hydrolysis were compared to those in control wells (without inhibitors), and percentages of enzyme inhibition were calculated for each concentration of inhibitor. The concentration of inhibitor needed to reduce the initial rate of hydrolysis of substrate by 50% (IC50) was calculated as the residual activity of β-lactamase at 486 nm using GraFit version 7 kinetics software package (Erithacus Software, Surrey, UK).
(§3) Using the methodology described above, examples of the current invention were evaluated for their ability to inhibit β-lactamase enzymes from all four Ambler classifications (A through D). […] NT=Not tested.

KPC-2 = molecular target: T2, KPC-2 (Klebsiella pneumoniae, UniProt Q9F663); test: β-lactamase enzyme inhibition assay, KPC-2 (imipenem substrate); type: biochemical
T2 construct: made in house; host or cells: E. coli BL21(DE3)
Protocol: as §1, §2, §3

[1] = molecular target: T3, VIM-2 metallo β-lactamase (Pseudomonas aeruginosa, UniProt Q9K2N0); test: β-lactamase enzyme inhibition assay, VIM-2 (nitrocefin substrate); type: biochemical; conditions: 15 min preincubation at 37° C.; nitrocefin 100 μM, 486 nm; read-out: IC50 VIM-2 (Class B)
T3 construct: made in house; host or cells: E. coli BL21(DE3)
Protocol: For VIM-2 metallo β-lactamase, the procedure was identical with the following exceptions, first the protein was not pH adjusted to pH 5 with 50 mM sodium acetate. Second, the chromatography step was changed to a 5 ml Q sepharose anion exchange column pre-equilibrated with 50 mM Hepes pH 7.5, and elution of the protein was achieved by a linear gradient of NaCl (0-600 mM). Finally, the VIM-2 purification required a second run (3rd step) on the Q sepharose anion exchange column to achieve acceptable purity (>90%).
as §2, §3

p99 AmpC = molecular target: T4, p99 AmpC (Enterobacter cloacae, UniProt P05364); test: β-lactamase enzyme inhibition assay, p99 AmpC (nitrocefin substrate); type: biochemical
T4 construct: made in house; host or cells: E. coli BL21(DE3)
Protocol: as §1, §2, §3

OXA-48 = molecular target: T5, OXA-48 (Klebsiella pneumoniae, UniProt Q6XEC0); test: β-lactamase enzyme inhibition assay, OXA-48 (nitrocefin substrate); type: biochemical
T5 construct: made in house; host or cells: E. coli BL21(DE3)
Protocol: as §1, §2, §3

[2] = test system: E. cloacae expressing the Class C P99; test: Broth microdilution MIC assay, potentiation of ceftazidime; type: cell-based; conditions: Fixed CAZ 4 μg/mL; CAMHB, 16-20 hours at 37° C.
Description: (§4) To determine the ability of test compounds to potentiate the inhibition of the growth of bacterial strains that produce beta-lactamase enzymes, classic cell based broth microdilution MIC assays were employed. Six bacteria strains producing beta-lactamase enzymes were used: E. coli expressing the Class A Extended Spectrum Beta-Lactamase (ESBL) CTX-M-15, E. cloacae expressing the Class C P99, K. pneumoniae expressing the Class A carbapenemase KPC-3, P.aeruginosa expressing the Class B carbapenemase VIM-2, K. pneumoniae expressing the class A carbapenemase KPC-2 and the class B carbapenemase VIM-4, and K. pneumoniae producing the Class D carbapenemase OXA-48. The assay was conducted in Cation Adjusted Mueller Hinton Broth (CAMHB, BD #212322, BD Diagnostic Systems, Sparks, Md.). Bacteria strains were grown for 3-5 hours in CAMHB broth. Test compounds were added to a microtiter plate in 2-fold serial dilutions in CAMHB in a final concentration range of 32 μg/mL to 0.015 μg/mL. An overlay of CAMHB containing a Beta-lactam was added to the compounds at a final static concentration of 4 μg/mL. […] In addition to the titration of test compounds the MICs of a panel of control beta-lactams is also tested to ensure the strains are behaving consistently from test to test. Once the test compound and antibiotics are added the plates can be inoculated according to CLSI broth microdilution method. After inoculation, the plates are incubated for 16-20 hours at 37° C., then the Minimal Inhibitory Concentration (MIC) of the test compound is determined visually.
(§5) Using the methodology described above, examples of the current invention were evaluated for their ability to inhibit the growth of β-lactamase-producing bacteria in the presence of a β-lactam antibiotic.
(§6) Representative results are shown in Table 3 where A represents an MIC of the fixed β-lactam antibiotic in the presence of >32 μg/mL of a β-lactamase inhibitor of exemplary compounds, B represents the MIC in the presence of between 8 and 32 μg/mL of a β-lactamase inhibitor of exemplary compounds, and C represents the MIC in the presence of ≤4 μg/mL of a β-lactamase inhibitor of exemplary compounds. NT=Not Tested.

[3] = test system: E. coli expressing the Class A Extended Spectrum Beta-Lactamase (ESBL) CTX-M-15; test: as above; type: cell-based; conditions: Fixed CAZ 4 μg/mL; CAMHB, 16-20 hours at 37° C.
Description: as §4, §5, §6

[4] = test system: K. pneumoniae expressing the Class A carbapenemase KPC-3; test: Broth microdilution MIC assay, potentiation of meropenem; type: cell-based; conditions: Fixed Mero 4 μg/mL; CAMHB, 16-20 hours at 37° C.
Description: as §4, §5

[5] = test system: K. pneumoniae producing the Class D carbapenemase OXA-48; test: as above; type: cell-based; conditions: Fixed Mero 4 μg/mL; CAMHB, 16-20 hours at 37° C.
Description: as §4, §5

[6] = test system: K. pneumoniae expressing the class A carbapenemase KPC-2 and the class B carbapenemase VIM-4; test: as above; type: cell-based; conditions: Fixed Mero 4 μg/mL; CAMHB, 16-20 hours at 37° C.
Description: as §4, §5, §6

[7] = test system: P.aeruginosa expressing the Class B carbapenemase VIM-2; test: as above; type: cell-based; conditions: Fixed Mero 4 μg/mL; CAMHB, 16-20 hours at 37° C.
Description: as §4, §5, §6

T5 sequence (Q6XEC0 23-265 limits assumed): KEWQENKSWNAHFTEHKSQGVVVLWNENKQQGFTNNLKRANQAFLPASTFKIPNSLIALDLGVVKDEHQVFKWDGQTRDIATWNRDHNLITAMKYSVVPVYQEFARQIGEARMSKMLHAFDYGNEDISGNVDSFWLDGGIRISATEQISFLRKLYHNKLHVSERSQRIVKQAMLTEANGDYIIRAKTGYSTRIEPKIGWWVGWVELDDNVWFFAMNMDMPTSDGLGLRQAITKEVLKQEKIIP
T4 sequence (P05364 21-381): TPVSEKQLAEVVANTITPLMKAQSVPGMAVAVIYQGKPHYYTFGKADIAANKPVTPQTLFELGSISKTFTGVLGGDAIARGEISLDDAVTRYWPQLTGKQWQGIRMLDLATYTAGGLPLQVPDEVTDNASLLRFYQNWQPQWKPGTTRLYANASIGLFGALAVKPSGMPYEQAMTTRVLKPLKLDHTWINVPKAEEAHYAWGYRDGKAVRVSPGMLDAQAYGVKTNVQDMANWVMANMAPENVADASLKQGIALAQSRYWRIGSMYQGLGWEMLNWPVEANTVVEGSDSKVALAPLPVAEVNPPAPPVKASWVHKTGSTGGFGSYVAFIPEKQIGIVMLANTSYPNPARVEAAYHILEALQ
T1 sequence (P0A3M1 22-286): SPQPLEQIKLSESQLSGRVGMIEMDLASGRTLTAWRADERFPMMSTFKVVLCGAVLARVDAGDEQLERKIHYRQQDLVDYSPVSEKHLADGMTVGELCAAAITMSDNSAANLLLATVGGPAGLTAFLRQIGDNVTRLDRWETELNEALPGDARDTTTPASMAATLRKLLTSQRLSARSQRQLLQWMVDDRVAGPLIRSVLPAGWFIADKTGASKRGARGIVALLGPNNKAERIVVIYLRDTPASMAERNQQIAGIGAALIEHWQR
T2 sequence (Q9F663 25-293 limits assumed): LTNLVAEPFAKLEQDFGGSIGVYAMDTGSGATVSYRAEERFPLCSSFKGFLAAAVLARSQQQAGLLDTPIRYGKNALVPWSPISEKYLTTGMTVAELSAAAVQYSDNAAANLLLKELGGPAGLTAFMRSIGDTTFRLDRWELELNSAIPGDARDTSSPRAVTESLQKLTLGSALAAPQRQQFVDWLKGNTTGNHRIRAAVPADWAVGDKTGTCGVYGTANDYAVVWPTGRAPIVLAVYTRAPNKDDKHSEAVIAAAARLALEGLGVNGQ

Structure (SMILES): CC(F)(F)CCC(=O)N[C@H]1Cc2cccc(C(=O)O)c2OB1O [Example 85, (R)-3-(4,4-Difluoro-pentanoylamino)-2-hydroxy-3,4-dihydro-2H -benzo[e][1,2]oxaborinine-8-carboxylic acid]
- IC50 (SHV-5): < 100 nM
- IC50 (KPC-2): < 100 nM
- IC50 [1]: 1000 to 10000 nM
- IC50 (p99 AmpC): < 100 nM
- IC50 (OXA-48): 1000 to 10000 nM
- MIC (μg/mL) of exemplary compounds in presence of fixed β-lactams, E. cl. 144200 p99 AmpC [2]: C (C represents the MIC in the presence of ≤4 μg/mL of a β-lactamase inhibitor)
- MIC (μg/mL) of exemplary compounds in presence of fixed β-lactams, E. coli ESBL4 CTX-M-15 [3]: C (C represents the MIC in the presence of ≤4 μg/mL of a β-lactamase inhibitor)
- MIC (μg/mL) of exemplary compounds in presence of fixed β-lactams, K. P. 156319 KPC-3 [4]: C (C represents the MIC in the presence of ≤4 μg/mL of a β-lactamase inhibitor)
- MIC (μg/mL) of exemplary compounds in presence of fixed β-lactams, K. P. 11978 OXA-48 [5]: C (C represents the MIC in the presence of ≤4 μg/mL of a β-lactamase inhibitor)
- MIC (μg/mL) of exemplary compounds in presence of fixed β-lactams, K.P. A-1797 KPC-2 VIM-4 [6]: B (B represents the MIC in the presence of between 8 and 32 μg/mL of a β-lactamase inhibitor)
- MIC (μg/mL) of exemplary compounds in presence of fixed β-lactams, P. aerug. 2775 VIM-2 [7]: C (C represents the MIC in the presence of ≤4 μg/mL of a β-lactamase inhibitor)
